{
  "source": "patent US9359311B2",
  "about": "“Substituted aromatic oligomers” (NEUROSCIOS GMBH, priority 2011, dated 2016)",
  "key": {"[1]": {"biological_target": "T1, Human Aβ38, Aβ40 and Aβ42 (Homo sapiens, UniProt P05067)", "T1 construct": "from tissue; host or cells: CSF and left brain hemisphere (SDS fraction) of transgenic hAPPSL mice", "T1 sequence (P05067 672-713 limits assumed)": "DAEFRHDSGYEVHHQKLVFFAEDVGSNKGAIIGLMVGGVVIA", "assay": "Human Aβ38, Aβ40 and Aβ42 in CSF of hAPPSL Tg mice after 90 days treatment (immunosorbent assay)", "format": "in vivo, mouse", "conditions": "twice daily i.p., hAPPSL Tg mice, p-FTAA 1 or 10 mg/kg/day, P9707_003 10 mg/kg/day", "procedure": "(§1) Vehicle: Phosphate Buffered Saline (PBS; 6.7 mM PO4, 155 mM NaCl, pH=7.3-7.5) (BioWhittaker PBS from Lonza).\n(§2) Test item (T.I.): p-FTAA and P9707_003 diluted in vehicle from stock solution in deionized water (10 mg/ml).\n(§3) Tg hAPPSL: Transgenic hAPPSL mice over-expressing hAPP(751) under the control of the murine Thy-1 promoter with a C57BL/6xDBA background.\n(§4) Human Aβ38, Aβ40 and Aβ42 were determined in homogenates of the left brain hemispheres and in CSF samples of all Tg animals by an immunosorbent assay from Mesoscale Discovery\n(§5) 48 hAPP Tg mice plus 4 reserves allocated to 4 different treatment groups were treated with either vehicle only (control), p-FTAA or P9707_003. As an additional control, 12 nTg littermates of the hAPPSL mice (plus 1 reserve) were treated with vehicle only. Starting at 6.5 months of age, female hAPPSL mice were treated with vehicle only, p-FTAA (dosage: 1 or 10 mg/kg/day) or P9707_003 (dosage: 10 mg/kg/day) for 90 days. The Test Items (T.I.s) were administered in Vehicle. Compound and vehicle were administered twice daily i.p. for 90 days. Tg hAPPSL mice with a C57BL/6xDBA background and corresponding nTg littermates at an age of 6.5 months (±2 weeks) were randomly assigned to the treatment groups.\n(§6) In the brain homogenate SDS fraction and in CSF of each Tg mouse, human Aβ38, Aβ40 and Aβ42 levels were measured with a Aβ-kit from Mesoscale Discovery. Aβ levels were evaluated in comparison to a peptide standard as pg/mg brain (wet weight) or pg/ml CSF.\nDescriptive statistical analysis was performed on all evaluated parameters. All data were represented as mean±standard error of mean (SEM). Grubb's test was used to detect outliers. Normality distribution of the values was tested with Kolmogorov Smirnov normality distribution test. Group differences between all Tg groups were calculated by a parametric ANOVA followed by a Bonferroni post test."}, "[2]": {"system": "PHF-tau doubly-phosphorylated at Thr231 and Ser235", "assay": "Phosphorylation of Tau in neurites crossing amyloid plaques, AT180 IHC, hAPPSL Tg mice", "format": "in vivo, mouse", "procedure": "as §1\nTest Item (T.I.): p-FTAA and P9707_003, diluted in vehicle from stock solution in deionized water (10 mg/ml).\nas §3\nas §5, with “(+2” for “(±2”\nHistological evaluations were performed with six randomly chosen cryo-frozen brain hemispheres of treatment groups PBS Control, p-FTAA 1 mg/kg/day, p-FTAA 10 mg/kg/day, and P9707_003 10 mg/kg/day.\n15 cryo-sections per level (altogether 5 levels), each 10 μm thick (Leica CM 3050S) were sagittally cut. Brain levels were chosen according to the morphology atlas “The Mouse Brain” from Paxinos and Franklin (2nd edition). The cutting of the five levels started with a random slice, then sampling was continued uniformly and systematically, always retaining 15 slices per level in series and discarding 100 μm in between the levels.\nTAU phosphorylation was visualized immunohistochemically using the AT180 antibody. Clone AT180 recognizes PHF-tau doubly-phosphorylated at Thr231 and Ser235.\nFor determination of amyloid depositions 5 slices (1 from each level) per brain were stained and screened. From each slice five images were captured from 5 defined areas in the brain. The order of these positions reflect the time course of plaque deposition in the APPsl model, which starts in the frontal cortex (P11) at the age of 3 months and then spreads to the medial (P12) and dorsal cortex over age. At six months of age, plaques can be found in the medial cortex (P13), from then plaque load spreads into the hippocampal formation with hot spots in the subiculum (P14) and the dentate gyrus (P15) at the age of nine months.\nMosaic images for plaque load quantification including the whole cortex and hippocampus were recorded on a Zeiss AxioImager.Z1 microscope using high aperture lenses and an AxioVision 4.8 software driven AxioCam MRm (10× lens, 1× optocoupler). Plaques for AT180 quantifcation were imaged with a 20× lens. Detail images for qualitative figures are 40× image stacks collapsed to 2D by the extended depth of field function of AxioVision software.\nDescriptive statistical analysis was performed on all evaluated parameters, Kolmogorov Smirnov test were performed to test normal distribution of data. Data in graphs are represented as mean±SEM."}, "[3]": {"biological_target": "T1, Human Aβ38, Aβ40 and Aβ42", "assay": "Human Aβ38, Aβ40 and Aβ42 in SDS brain homogenate fraction of hAPPSL Tg mice after 90 days treatment", "format": "in vivo, mouse", "conditions": "twice daily i.p., p-FTAA 1 or 10 mg/kg/day, P9707_003 10 mg/kg/day", "procedure": "as §1, §2, §3, §4\n48 hAPP Tg mice plus 4 reserves allocated to 4 different treatment groups were treated with either vehicle only (control), p-FTAA or P9707_003. As an additional control, 12 nTg littermates of the hAPPSL mice (plus 1 reserve) were treated with vehicle only. Starting at 6.5 months of age, female hAPPSL mice were treated with vehicle only, p-FTAA (dosage: 1 or 10 mg/kg/day) or P9707_003 (dosage: 10 mg/kg/day) for 90 days. […]\nas §6\nDescriptive statistical analysis was performed on all evaluated parameters. […] Group differences between all Tg groups were calculated by a parametric ANOVA followed by a Bonferroni post test."}, "prion": {"system": "prion", "conditions": "Ref: JBC doi: 10.1074/jbc.M112.355958; cited from earlier work"}, "biotinylated Aβ1-42": {"biological_target": "T2, biotinylated Aβ1-42 (Homo sapiens, UniProt P05067)", "T2 construct": "To assure monomerisation of biotinylated Aβ1-42 (Anaspec #23523-0.5) the peptide was thoroughly monomerised; purchased Anaspec 23523-0.5", "T2 sequence (P05067 672-713 limits assumed)": "as above", "assay": "Inhibition of Abeta oligomerisation (biotinylated Aβ1-42, neutravidin plate, streptavidin-HRP)", "format": "biochemical", "conditions": "inhibition of Aβ1-42 aggregation, approximately 12 nM Aβ1-42, PBS pH 7.4, 2% DMSO, 30 min RT"}},
  "note": "Entries after “also recorded” stand apart in the source; their conditions may differ.",
  "data": [
    {"smiles": "O=C(O)Cc1cc(-c2ccc(C(=O)O)s2)sc1-c1ccc(-c2sc(-c3ccc(C(=O)O)s3)cc2CC(=O)O)s1", "note": "[p-FTAA, reference compound]", "values": [
      {"measurement": "CSF Aβ levels", "setting": "[1]", "value": "reduced"},
      {"measurement": "AT180 load", "setting": "[2]; 1 mg p-FTAA treatment, position 4", "value": "significantly reduced"},
      {"measurement": "AT180 load", "setting": "[2]; 10 mg p-FTAA treatment, positions 4 and 5", "value": "highly significant reduction"},
      {"measurement": "AT180 IR in plaques of younger history of origin (hippocampal formation, subiculum, dentate gyrus)", "setting": "[2]; 90 days i.p., hAPPSL Tg mice", "value": "drastically reduced"},
      {"measurement": "aggregated Aβ38, Aβ40 and Aβ42 in SDS fraction of brain homogenate", "setting": "[3]", "value": "significant SDS soluble Aβ lowering effect; also recorded: reduced"},
      {"measurement": "anti-prion potential", "setting": "prion", "value": "pronounced anti-prion potential"},
      {"measurement": "IC50", "setting": "biotinylated Aβ1-42", "value": 5.01, "unit": "µM"}
    ]}
  ]
}
